What was measured:
[1] = system: Miapaca-2 cells; test: MiaPaca-2 Combination Cell proliferation Assay (1) with cobimetinib; format: cell-based; conditions: MiaPaca-2 cell proliferation, read-out: MiaPaca-2 Combo (1) IC50
[2] = system: WM3629 cells; test: WM3629 Cell Proliferation Assay (1); format: cell-based
Procedure: WM3629 Cell Proliferation Assay (1)
WM3629 cells (#WM3629-01-0001) are obtained from Rockland Immunochemicals Inc (Gilbertsville, PA). Briefly, cells were grown in MCDB 153 medium (Sigma, #M7403, St. Louis, MO) supplemented with 20% Leibovitz's L-15 (ThermoFisher #11415-064, Waltham, MA), 2% heat inactivated fetal bovine serum (ThermoFisher, #A3840001, Waltham, MA), 5 μg/mL Insulin (Bovine Pancreas) (Sigma, #10516, St. Louis, MO), 1.68 mM Calcium Chloride (Sigma, #C-34006, St. Louis, MO) and 1% Penicillin/Streptomycin/L-Glutamine (ThermoFisher #10378016, Waltham, MA) at 37° C., 5% CO2, and 95% humidity. Cells are expanded until reaching 70-95% confluency at which point they are subcultured or harvested for assay use. A serial dilution of test compound is dispensed into a 96-well black clear bottom plate in triplicate. Four thousand five hundred cells are added per well in 200 μL complete growth medium in the 96-well plate. Plates are incubated for 67-72 hours at 37° C., 5% CO2, and 95% humidity. At the end of the incubation, 40 μL of a 440 μM solution of resazurin (Sigma, #199303, St. Louis, MO) in PBS is added to each well of the plate and plates are incubated for an additional 6-7 hours at 37° C., 5% CO2, and 95% humidity. Plates are read on a Synergy2 or equivalent reader (Biotek, Winooski VT) using an excitation of 540 nm and an emission of 600 nm. Data is analyzed using Prism software (GraphPad, San Diego, CA) to calculate IC50 values.

Compound | IC50 [1] [nM] | IC50 [2] [nM]
Cc1ccc(NC(=O)c2ccnc(C(C)(C)C#N)c2)cc1-c1ccnc(-c2ccnc3c2CC(=O)N3)c1 [Example 23] | 100 to 500 | –
CC(=O)Nc1cc(-c2nccc(-c3cc(NC(=O)c4ccnc(C(F)(F)F)c4)ccc3C)n2)ccn1 [Example 24] | ≤ 100 | –
CNC(=O)c1cc(-c2nccc(-c3cc(NC(=O)c4ccnc(C(F)(F)F)c4)ccc3C)n2)ccn1 [Example 25] | ≤ 100 | –
CC(=O)Nc1cc(-c2cc(-c3cc(C(=O)Nc4ccnc(C(F)(F)F)c4)ccc3C)ccn2)ccn1 [Example 26] | ≤ 100 | –
CNC(=O)c1cc(-c2cc(-c3cc(NC(=O)c4ccnc(C(F)(F)F)c4)ccc3C)cc(C3CC3)n2)ccn1 [Example 27] | 500 to 1000 | –
CC(=O)Nc1cc(-c2cccc(-c3cc(NC(=O)c4ccnc(C(F)(F)F)c4)ccc3C)c2)ccn1 [Example 28] | ≤ 100 | –
CC(=O)Nc1cc(-c2cncc(-c3cc(NC(=O)c4ccnc(C(F)(F)F)c4)ccc3C)n2)ccn1 [Example 29] | ≤ 100 | –
CC(=O)Nc1cc(-c2cccc(-c3cc(NC(=O)c4ccnc(C(F)(F)F)c4)ccc3C)c2)ncn1 [Example 30] | ≤ 100 | –
COC(=O)Nc1cc(-c2cccc(-c3cc(NC(=O)c4ccnc(C(C)(C)C#N)c4)cnc3C)c2)ccn1 [Example 282] | ≤ 100 | –
COC(=O)Nc1cc(-c2cc(-c3cc(NC(=O)c4ccnc(C(C)(C)C#N)c4)cnc3C)ccn2)ccn1 [Example 297] | ≤ 100 | –
COC(=O)Nc1cc(-c2cc(-c3cc(NC(=O)c4ccnc(C(C)(C)F)c4)c(F)cc3C)ccn2)ccn1 [Example 302] | ≤ 100 | ≤ 100
COC(=O)Nc1cc(-c2nccc(-c3cc(NC(=O)c4ccnc(C(C)(C)C#N)c4)c(F)cc3C)n2)ccn1 [Example 303] | ≤ 100 | ≤ 100
COC(=O)Nc1cc(-c2nccc(-c3cc(NC(=O)c4ccnc(C(C)(C)F)c4)c(F)cc3C)n2)ccn1 [Example 304] | ≤ 100 | ≤ 100
COC(=O)Nc1cc(-c2cc(-c3cc(NC(=O)c4ccnc(C(C)(C)C#N)c4)c(F)cc3C)ccn2)ccn1 [Example 308] | ≤ 100 | ≤ 100
Cc1ccc(NC(=O)c2ccnc(C(C)(C)F)c2)cc1-c1cc(-c2ccnc(NC(=O)C3CC3)c2)cnn1 [Example 315] | ≤ 100 | ≤ 100
COC(C)(C)c1cc(C(=O)Nc2ccc(C)c(-c3cc(-c4ccnc(NC(=O)C5CC5)c4)cnn3)c2)ccn1 [Example 319] | ≤ 100 | –
Cc1ccc(NC(=O)c2cnn(C(C)(C)C)c2)cc1-c1cc(-c2ccnc(NC(=O)C3CC3)c2)cnn1 [Example 321] | – | ≤ 100
CNC(=O)c1cc(-c2cnnc(-c3cc(NC(=O)c4ccnc(C(C)(C)F)c4)ccc3C)c2)ccn1 [Example 325] | – | ≤ 100
CNC(=O)c1cc(-c2cnnc(-c3cc(NC(=O)c4ccnc(C(F)F)c4)ccc3C)c2)ccn1 [Example 327] | – | 1000 to 10000
CNC(=O)c1cc(-c2cc(-c3cc(NC(=O)COCC4CC4)ccc3C)ccn2)ccn1 [Example 358] | 1000 to 10000 | –

Reference: patent US12319655B2, “RAF kinase inhibitors and methods of use thereof” (Deciphera Pharmaceuticals, LLC, priority 2021, dated 2025)
